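A five-concentration, 48-hour dose response in 96-well plates underlies each endpoint, interpolated linearly between surrounding concentrations. The concentration for 50% growth inhibition is given as GI50.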 Active and inactive are the calls of the source. Rule as the data show it: active = GI50 up to about 1.1 µM and inactive = higher.
How the values were obtained:
Assay in all cases: NCI tumour cell line growth inhibition, 48 h
T47D = system: T47D
786-0 = system: 786-0
Hs-578T = system: Hs-578T
MDA-MB-231 = system: MDA-MB-231
MDA-MB-435 = system: MDA-MB-435
M19-MEL = system: M19-MEL
DMS-114 = system: DMS-114
RXF 631 = system: RXF 631
LXFL 529 = system: LXFL 529

Measured: GI50

Cc1nc(Cl)c(C)c(Cl)n1
inactive: T47D > 100 µM | 786-0 > 100 µM | Hs-578T > 75.2 µM | MDA-MB-231 > 100 µM | MDA-MB-435 33.3 µM

CC1C(=O)C(C)C(c2ccco2)N(N=O)C1c1ccco1 (stereo not given)
inactive: M19-MEL > 100 µM

O=C1CCC(=O)C1=NNc1ccccc1
inactive: DMS-114 > 100 µM | 786-0 > 100 µM | RXF 631 > 100 µM | M19-MEL > 100 µM

CCOC(=O)CCN1C(=O)c2c(NC(=O)C(=O)O)cccc2S1(=O)=O
inactive: T47D > 100 µM | 786-0 > 100 µM | Hs-578T > 100 µM | MDA-MB-231 > 100 µM | MDA-MB-435 > 100 µM

COc1ccc(-c2cc(O)c3c(C)ccnc3n2)cc1
inactive: T47D 7.43 µM | Hs-578T 23.8 µM | MDA-MB-231 49.5 µM

Cc1nc(O)nc(O)c1/C=C/C(=O)O
inactive: DMS-114 > 1000 µM | M19-MEL > 1000 µM

CCc1c(-c2ccc(OC)cc2)oc(OC)c(C)c1=O
inactive: T47D 45 µM | 786-0 > 100 µM | Hs-578T > 100 µM | MDA-MB-231 75.7 µM | MDA-MB-435 > 100 µM

C=C1C(=O)OC2C[C@@]3(C)CCCC(=C)C3CC12 (stereo not given in full)
inactive: DMS-114 16.2 µM | LXFL 529 3.2 µM

CC(=O)c1c(-c2ccco2)c(C#N)c(=S)n(C2OC(CO)C(O)C(O)C2O)c1-c1ccccc1 (stereo not given)
inactive: T47D 29.4 µM | Hs-578T 61.8 µM | MDA-MB-231 > 100 µM | MDA-MB-435 29.2 µM

CC(=O)OC1COC(N2c3ccccc3[C@@H]3CCc4c([nH]c5ccccc45)[C@@H]32)C(OC(C)=O)C1OC(C)=O.CC(=O)OC1COC(N2c3ccccc3[C@H]3CCc4c([nH]c5ccccc45)[C@H]32)C(OC(C)=O)C1OC(C)=O (stereo not given in full)
inactive: Hs-578T 21.4 µM | MDA-MB-231 14 µM | MDA-MB-435 51.8 µM

CCOc1ncn(-c2ccc(NC(=S)Nc3ncccn3)cc2)n1
inactive: T47D 21.7 µM | MDA-MB-231 24.8 µM | MDA-MB-435 56.1 µM

O=C(CCN1CCOCC1)/C(=C/c1ccccc1)c1ccccc1
inactive: DMS-114 3.06 µM | M19-MEL 3.82 µM

O=C(Nc1ccccc1C(=O)NCCCO)/C(=C/c1ccccc1O)NC(=O)c1ccccc1
inactive: T47D 16.3 µM | 786-0 34 µM | Hs-578T 26.2 µM | MDA-MB-231 26.7 µM | MDA-MB-435 > 50.5 µM

CCP(=O)(CC)C(Cl)(Cl)C(O)C(Cl)(Cl)Cl (stereo not given)
inactive: T47D > 100 µM | Hs-578T > 100 µM | MDA-MB-231 > 100 µM

CCN1c2ccccc2-n2c(C)nnc2-c2c(-c3ccccc3)n[nH]c21
inactive: T47D 14.7 µM | Hs-578T 46.1 µM | MDA-MB-231 18.9 µM | MDA-MB-435 16.2 µM

CCOC(=O)Cc1cc(OC)c(OC)cc1/C(Cl)=C(\C=O)c1ccc(OC)c(OC)c1
inactive: DMS-114 18.2 µM | RXF 631 20.3 µM | M19-MEL 22.6 µM

O=C(N/C(=C\c1ccccc1[N+](=O)[O-])c1nc2ccccc2[nH]1)c1ccccc1
inactive: LXFL 529 59.4 µM | RXF 631 > 100 µM | M19-MEL > 100 µM

Cc1c(C)c2ccc(OCC(O)COC(C)C)c(C)c2oc1=O (stereo not given)
inactive: T47D > 100 µM | 786-0 > 10 µM | Hs-578T 31.7 µM

Cc1cc(NC(=S)Nc2ccccc2)c(NC(=S)Nc2ccccc2)cc1C
inactive: M19-MEL 23.3 µM

CCOC(=O)NC(Nc1ncccn1)(C(F)(F)F)C(F)(F)F
inactive: T47D > 100 µM | Hs-578T > 100 µM | MDA-MB-231 > 100 µM | MDA-MB-435 > 100 µM
